Experimental data from US11040981B2, “Pyrrolotriazine compounds and methods of inhibiting TAM kinases” (Syros Pharmaceuticals, Inc., priority 2017, dated 2021).

Tests used:
FLT3 = molecular target: T1, FLT3 (Homo sapiens, UniProt P36888); experiment: TR-FRET kinase activity assay, FLT3; format: biochemical; conditions: ATP at Km, 60 minutes
T1 sequence (P36888 27-993): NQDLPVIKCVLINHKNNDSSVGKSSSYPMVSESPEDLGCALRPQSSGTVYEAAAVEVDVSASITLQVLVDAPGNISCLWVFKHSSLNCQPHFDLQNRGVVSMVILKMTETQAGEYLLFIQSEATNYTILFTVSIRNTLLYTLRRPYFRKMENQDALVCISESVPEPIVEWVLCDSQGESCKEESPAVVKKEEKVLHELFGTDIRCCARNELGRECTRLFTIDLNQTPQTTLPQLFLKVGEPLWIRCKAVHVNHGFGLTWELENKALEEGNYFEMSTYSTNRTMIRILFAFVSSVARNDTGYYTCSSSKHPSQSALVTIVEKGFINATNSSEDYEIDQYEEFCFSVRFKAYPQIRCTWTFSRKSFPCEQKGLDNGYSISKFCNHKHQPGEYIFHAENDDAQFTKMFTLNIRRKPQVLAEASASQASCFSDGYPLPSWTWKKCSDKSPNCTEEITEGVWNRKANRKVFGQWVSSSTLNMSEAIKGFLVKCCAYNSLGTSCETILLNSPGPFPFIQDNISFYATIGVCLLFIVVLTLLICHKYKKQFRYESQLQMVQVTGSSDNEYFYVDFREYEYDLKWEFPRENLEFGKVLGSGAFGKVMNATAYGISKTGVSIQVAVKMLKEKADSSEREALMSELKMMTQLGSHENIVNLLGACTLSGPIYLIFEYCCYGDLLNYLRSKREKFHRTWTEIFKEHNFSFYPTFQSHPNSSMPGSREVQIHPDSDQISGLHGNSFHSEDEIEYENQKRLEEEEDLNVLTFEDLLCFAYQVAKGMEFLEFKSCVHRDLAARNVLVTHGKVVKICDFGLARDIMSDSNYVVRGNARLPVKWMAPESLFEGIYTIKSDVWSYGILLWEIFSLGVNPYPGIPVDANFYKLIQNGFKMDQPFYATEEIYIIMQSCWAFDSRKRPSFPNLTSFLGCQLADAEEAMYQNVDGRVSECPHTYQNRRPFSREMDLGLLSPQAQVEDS
Procedure, shortened: (§1)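 IC50 reflects the drop in TR-FRET between Eu anti-phosphotyrosine antibody and labelled peptide after a 60-minute room-temperature reaction. Buffer was 50 mM HEPES pH 7.5 with 10 mM MgCl2, 1 mM EGTA, 0.01% Brij 35 and 1 mM DTT, with ATP at Km per enzyme and EDTA quench.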

MERTK = molecular target: T2, MERTK (Homo sapiens, UniProt Q12866); experiment: TR-FRET kinase activity assay, MERTK; format: biochemical; conditions: for IC50: TR-FRET activity assay, ATP at Km, 60 minutes, read-out: Mer IC50; for FLT3/Mer ratio (FLT3 IC50/Mer IC50): ratio calculated as FLT3 IC50/Mer IC50
T2 sequence (Q12866 21-999): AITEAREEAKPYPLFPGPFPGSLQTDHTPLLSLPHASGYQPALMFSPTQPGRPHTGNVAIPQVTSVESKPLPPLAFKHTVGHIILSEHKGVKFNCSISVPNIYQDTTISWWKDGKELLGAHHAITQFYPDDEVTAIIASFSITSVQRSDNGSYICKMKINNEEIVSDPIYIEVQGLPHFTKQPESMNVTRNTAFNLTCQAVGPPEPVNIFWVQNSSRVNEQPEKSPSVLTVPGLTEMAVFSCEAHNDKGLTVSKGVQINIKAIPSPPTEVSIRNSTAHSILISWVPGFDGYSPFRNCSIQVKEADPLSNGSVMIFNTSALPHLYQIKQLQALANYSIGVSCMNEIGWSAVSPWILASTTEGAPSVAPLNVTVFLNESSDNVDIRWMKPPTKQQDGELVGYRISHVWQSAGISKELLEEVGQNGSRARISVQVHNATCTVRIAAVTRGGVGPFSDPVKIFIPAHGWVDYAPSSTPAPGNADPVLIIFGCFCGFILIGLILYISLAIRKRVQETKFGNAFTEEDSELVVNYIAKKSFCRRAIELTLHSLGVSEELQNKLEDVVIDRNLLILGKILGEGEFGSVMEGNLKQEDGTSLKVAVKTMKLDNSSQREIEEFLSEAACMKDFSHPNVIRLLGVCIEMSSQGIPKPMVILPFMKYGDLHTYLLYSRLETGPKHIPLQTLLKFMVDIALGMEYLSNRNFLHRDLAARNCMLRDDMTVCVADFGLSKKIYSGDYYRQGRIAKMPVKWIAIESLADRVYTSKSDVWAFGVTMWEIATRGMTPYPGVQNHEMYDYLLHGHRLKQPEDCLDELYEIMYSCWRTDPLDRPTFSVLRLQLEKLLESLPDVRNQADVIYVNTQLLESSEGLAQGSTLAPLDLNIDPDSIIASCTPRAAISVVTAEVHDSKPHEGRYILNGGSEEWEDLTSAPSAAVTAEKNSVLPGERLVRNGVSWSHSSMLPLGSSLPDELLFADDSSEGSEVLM
Procedure, shortened: as §1

Structure (SMILES) | IC50 (FLT3) [nM] | IC50 (MERTK) [nM] | FLT3/Mer ratio (FLT3 IC50/Mer IC50) (MERTK)
COC[C@H](C)Nc1ncc2c([C@H]3CC[C@H](C(C)=O)CC3)cc([C@H]3CC[C@H](O)CC3)n2n1 [Compound 576] | 1000 to 10000 | ≤ 100 | +++ (“+++” represents a ratio of >100)
Cc1nnc(C(C)(C)n2cc(-c3cc([C@H]4CC[C@H](O)CC4)n4nc(N[C@@H](C)COC(F)F)ncc34)cn2)o1 [Compound 517] | 1000 to 10000 | ≤ 100 | +++ (“+++” represents a ratio of >100)
CC(Nc1ncc2c(-c3cnn(C4COC4)c3)cc(C3CCC(O)CC3)n2n1)c1cccnc1 (racemic) [Compound 536] | 1000 to 10000 | ≤ 100 | +++ (“+++” represents a ratio of >100)
COC[C@H](C)Nc1ncc2c(-c3cnn(C4COC4)c3)cc([C@@H]3CC[C@H](O)[C@@H](C)C3)n2n1 [Compound 588] | 100 to 1000 | ≤ 100 | ++ (“++” represents a ratio of between 10 and 100)
COC[C@H](C)Nc1ncc2c(-c3cnn(C4COC4)c3)cc(C3CCSCC3)n2n1 [Compound 522] | 100 to 1000 | ≤ 100 | +++ (“+++” represents a ratio of >100)
COC[C@H](C)Nc1ncc2c(-c3ccnc(N4CCOCC4)c3)cc([C@H]3CC[C@@](C)(O)CC3)n2n1 [Compound 548] | 100 to 1000 | ≤ 100 | +++ (“+++” represents a ratio of >100)
COC[C@H](C)Nc1ncc2c(-c3ccnc(C4COC4)c3)cc([C@H]3CC[C@H](O)CC3)n2n1 [Compound 566] | 100 to 1000 | ≤ 100 | +++ (“+++” represents a ratio of >100)
COC[C@H](C)Nc1ncc2c(-c3ccnc(N4CCO[C@H](C(C)(C)O)C4)c3)cc([C@H]3CC[C@H](O)CC3)n2n1 [Compound 558] | 100 to 1000 | ≤ 100 | +++ (“+++” represents a ratio of >100)
CCN(C(=O)N1CCN(c2cc(-c3cc([C@H]4CC[C@H](O)CC4)n4nc(N[C@@H](C)COC)ncc34)ccn2)CC1)C(C)C [Compound 514] | 1000 to 10000 | ≤ 100 | +++ (“+++” represents a ratio of >100)
CC(Cc1ccc(F)cc1)Nc1ncc2c(-c3cnn(C4COC4)c3)cc(C3CCC(O)CC3)n2n1 (racemic) [Compound 535] | ≤ 100 | ≤ 100 | ++ (“++” represents a ratio of between 10 and 100)
C[C@H](Nc1ncc2c(-c3cnn(C4COC4)c3)cc([C@H]3CC[C@H](O)CC3)n2n1)C(F)(F)F [Compound 510] | 1000 to 10000 | ≤ 100 | +++ (“+++” represents a ratio of >100)
COC[C@H](C)Nc1ncc2c(-c3cnn(C(C)(C)c4nnc(C5CC5)o4)c3)cc([C@H]3CC[C@H](O)CC3)n2n1 [Compound 563] | 100 to 1000 | ≤ 100 | +++ (“+++” represents a ratio of >100)
COC[C@H](C)Nc1ncc2c(-c3cncc([S@@](C)(=N)=O)c3)cc([C@H]3CC[C@H](O)CC3)n2n1 [Compound 573] | > 10000 | ≤ 100 | +++ (“+++” represents a ratio of >100)
COC[C@H](C)Nc1ncc2c(-c3cncc([S@](C)(=N)=O)c3)cc([C@H]3CC[C@@H](O)CC3)n2n1 [Compound 572] | > 10000 | ≤ 100 | +++ (“+++” represents a ratio of >100)
CC(C)(O)C1CN(c2cc(-c3cc([C@H]4CC[C@H](O)CC4)n4nc(NCCOC(F)F)ncc34)ccn2)CCO1 (stereo partly drawn) [Compound 557] | 100 to 1000 | ≤ 100 | +++ (“+++” represents a ratio of >100)
COCC(C)Nc1ncc2c(-c3cccc(N4CCOCC4)c3)cc(C3CCC(O)CC3)n2n1 (stereo not drawn) [Compound 562] | ≤ 100 | ≤ 100 | +++ (“+++” represents a ratio of >100)
COC[C@H](C)Nc1ncc2c(-c3ccc([S@@](C)(=N)=O)nc3)cc([C@H]3CC[C@H](O)CC3)n2n1 [Compound 533] | 1000 to 10000 | ≤ 100 | +++ (“+++” represents a ratio of >100)
COCC(C)Nc1ncc2c(-c3cnn(C4COC4)c3)cc(C3CCNC(=O)C3)n2n1 (mixture of isomers) [Compound 592] | 1000 to 10000 | ≤ 100 | +++ (“+++” represents a ratio of >100)
COC[C@H](C)Nc1ncc2c(-c3cnn(C4COC4)c3)cc(C3CCC(=O)NC3)n2n1 (stereo partly drawn) [Compound 526] | 1000 to 10000 | ≤ 100 | ++ (“++” represents a ratio of between 10 and 100)
COC[C@H](C)Nc1ncc2c(-c3cnn(C4COC4)c3)cc([C@@H]3CC[C@H](O)[C@H](C)C3)n2n1 [Compound 587] | 100 to 1000 | ≤ 100 | +++ (“+++” represents a ratio of >100)
COC[C@H](C)Nc1ncc2c(-c3ccnc(N4CCOCC4)c3)cc([C@H]3CC[C@@H](O)CC3)n2n1 [Compound 546] | 100 to 1000 | ≤ 100 | +++ (“+++” represents a ratio of >100)
COC[C@H](C)Nc1ncc2c(-c3cnn(C4COC4)c3)cc([C@H]3CC[C@@H](O)CC3)n2n1 [Compound 564] | ≤ 100 | ≤ 100 | ++ (“++” represents a ratio of between 10 and 100)
C[C@@H](CC(F)(F)F)Nc1ncc2c(-c3cncc([S@](C)(=N)=O)c3)cc([C@H]3CC[C@H](O)CC3)n2n1 [Compound 582] | 1000 to 10000 | ≤ 100 | +++ (“+++” represents a ratio of >100)
COCC(C)Nc1ncc2c(-c3ccc4[nH]cnc4c3)cc(C3CCC(O)CC3)n2n1 (stereo not drawn) [Compound 553] | 100 to 1000 | ≤ 100 | +++ (“+++” represents a ratio of >100)
C[C@H](Nc1ncc2c(-c3cnn(C(C)(C)C(=O)N4CCOCC4)c3)cc([C@H]3CC[C@H](O)CC3)n2n1)C(F)(F)F [Compound 537] | 1000 to 10000 | ≤ 100 | +++ (“+++” represents a ratio of >100)
COC[C@H](C)Nc1ncc2c(-c3cnn(C(C)(C)C(=O)N4CCOCC4)c3)cc([C@@H]3CCc4cn[nH]c4C3)n2n1 [Compound 594] | 1000 to 10000 | ≤ 100 | +++ (“+++” represents a ratio of >100)
C[C@@H](COC(F)F)Nc1ncc2c(-c3ccc(S(C)(=O)=O)nc3)cc([C@H]3CC[C@H](O)CC3)n2n1 [Compound 513] | 100 to 1000 | ≤ 100 | +++ (“+++” represents a ratio of >100)
